In patent US20210284618A1, “FURANOCHALCONES AS INHIBITORS OF CYP1A1, CYP1A2 AND CYP1B1 FOR CANCER CHEMOPREVENTION” (Council of Scientific & Industrial Research, priority 2016, published 2021):

What was measured:
CYP1A2 = target: T1, CYP1A2 (Homo sapiens, UniProt P05177); experiment: CYP1A2 inhibition in Saccharosomes; format: biochemical
T1 construct: host or cells: yeast microsomes (Saccharosomes)
T1 sequence (P05177 1-516): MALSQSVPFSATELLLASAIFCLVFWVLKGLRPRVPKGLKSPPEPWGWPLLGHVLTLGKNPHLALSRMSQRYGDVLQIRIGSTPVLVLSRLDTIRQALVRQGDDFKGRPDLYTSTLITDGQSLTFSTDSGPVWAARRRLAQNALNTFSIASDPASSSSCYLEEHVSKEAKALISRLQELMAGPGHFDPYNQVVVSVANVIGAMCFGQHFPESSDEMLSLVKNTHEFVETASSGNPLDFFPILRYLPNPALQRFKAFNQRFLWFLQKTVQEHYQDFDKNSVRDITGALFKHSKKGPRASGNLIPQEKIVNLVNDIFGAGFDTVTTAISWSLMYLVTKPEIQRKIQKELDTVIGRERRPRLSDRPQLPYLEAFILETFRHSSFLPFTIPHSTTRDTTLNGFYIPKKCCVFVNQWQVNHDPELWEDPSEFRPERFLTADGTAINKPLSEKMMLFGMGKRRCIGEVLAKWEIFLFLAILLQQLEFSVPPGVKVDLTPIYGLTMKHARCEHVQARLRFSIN
Method: (§1) Example 25. IC50 determination for best compound against CYP1A1, CYP1B1 and other CYPs in Saccharosomes. Compounds were serially diluted to six different concentrations with 10% DMSO in a Sero-Well white microplate. The experiment was performed in a similar way as described above in examples 23 and 24.

CYP2C18 = target: T2, CYP2C18 (Homo sapiens, UniProt P33260); experiment: CYP2C18 inhibition in Saccharosomes; format: biochemical; details: Saccharosomes containing CYP2C18
T2 construct: host or cells: yeast microsomes (Saccharosomes)
T2 sequence (P33260 26-490): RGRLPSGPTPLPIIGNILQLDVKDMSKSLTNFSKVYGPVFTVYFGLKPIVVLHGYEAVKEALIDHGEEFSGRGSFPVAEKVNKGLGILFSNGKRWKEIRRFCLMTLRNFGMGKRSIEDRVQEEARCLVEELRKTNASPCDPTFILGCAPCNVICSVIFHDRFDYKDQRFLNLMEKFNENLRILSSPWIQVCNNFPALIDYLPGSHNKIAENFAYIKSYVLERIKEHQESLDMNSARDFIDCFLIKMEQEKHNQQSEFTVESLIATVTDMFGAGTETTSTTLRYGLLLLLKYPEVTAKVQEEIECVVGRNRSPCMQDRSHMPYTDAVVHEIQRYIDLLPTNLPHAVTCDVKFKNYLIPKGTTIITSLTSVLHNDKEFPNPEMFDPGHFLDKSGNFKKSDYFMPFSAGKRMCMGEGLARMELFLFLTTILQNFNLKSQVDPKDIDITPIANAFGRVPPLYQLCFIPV

CYP2C19 = target: T3, CYP2C19 (Homo sapiens, UniProt P33261); experiment: CYP2C19 inhibition in Saccharosomes; format: biochemical; details: Saccharosomes containing CYP2C19
T3 construct: host or cells: yeast microsomes (Saccharosomes)
T3 sequence (P33261 whole entry): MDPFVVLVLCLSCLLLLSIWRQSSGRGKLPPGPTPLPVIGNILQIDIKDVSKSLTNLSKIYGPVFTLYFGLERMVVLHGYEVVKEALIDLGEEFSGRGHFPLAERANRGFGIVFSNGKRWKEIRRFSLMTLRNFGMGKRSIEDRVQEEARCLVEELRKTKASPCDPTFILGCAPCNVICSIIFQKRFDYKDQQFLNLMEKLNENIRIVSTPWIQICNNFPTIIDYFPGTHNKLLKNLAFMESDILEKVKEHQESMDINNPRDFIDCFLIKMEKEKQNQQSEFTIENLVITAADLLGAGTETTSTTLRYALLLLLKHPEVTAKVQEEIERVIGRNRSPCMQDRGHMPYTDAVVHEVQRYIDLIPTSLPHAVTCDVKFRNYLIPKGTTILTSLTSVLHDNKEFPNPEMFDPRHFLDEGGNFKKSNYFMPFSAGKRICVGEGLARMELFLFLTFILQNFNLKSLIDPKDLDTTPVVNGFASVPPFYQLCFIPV

CYP3A4 = target: T4, CYP3A4 (Homo sapiens, UniProt P08684); experiment: CYP3A4 inhibition in Saccharosomes; format: biochemical
T4 construct: host or cells: yeast microsomes (Saccharosomes)
T4 sequence (P08684 whole entry): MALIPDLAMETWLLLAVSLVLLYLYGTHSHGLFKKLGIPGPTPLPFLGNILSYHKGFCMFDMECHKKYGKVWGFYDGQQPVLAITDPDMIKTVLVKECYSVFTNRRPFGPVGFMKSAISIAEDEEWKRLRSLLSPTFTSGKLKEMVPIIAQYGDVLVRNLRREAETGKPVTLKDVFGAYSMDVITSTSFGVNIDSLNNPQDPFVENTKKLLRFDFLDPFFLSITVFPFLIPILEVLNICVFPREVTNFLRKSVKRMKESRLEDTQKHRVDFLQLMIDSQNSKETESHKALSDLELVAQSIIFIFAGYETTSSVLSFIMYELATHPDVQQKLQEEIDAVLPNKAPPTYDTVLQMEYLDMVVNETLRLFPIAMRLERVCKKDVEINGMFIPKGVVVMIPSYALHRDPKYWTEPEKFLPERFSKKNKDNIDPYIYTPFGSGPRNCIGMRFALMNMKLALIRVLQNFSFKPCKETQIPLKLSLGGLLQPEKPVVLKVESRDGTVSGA
Method: as §1

CYP2D6 = target: T5, CYP2D6 (Homo sapiens, UniProt P10635); experiment: CYP2D6 inhibition in Saccharosomes; format: biochemical
T5 construct: host or cells: yeast microsomes (Saccharosomes)
T5 sequence (P10635 whole entry): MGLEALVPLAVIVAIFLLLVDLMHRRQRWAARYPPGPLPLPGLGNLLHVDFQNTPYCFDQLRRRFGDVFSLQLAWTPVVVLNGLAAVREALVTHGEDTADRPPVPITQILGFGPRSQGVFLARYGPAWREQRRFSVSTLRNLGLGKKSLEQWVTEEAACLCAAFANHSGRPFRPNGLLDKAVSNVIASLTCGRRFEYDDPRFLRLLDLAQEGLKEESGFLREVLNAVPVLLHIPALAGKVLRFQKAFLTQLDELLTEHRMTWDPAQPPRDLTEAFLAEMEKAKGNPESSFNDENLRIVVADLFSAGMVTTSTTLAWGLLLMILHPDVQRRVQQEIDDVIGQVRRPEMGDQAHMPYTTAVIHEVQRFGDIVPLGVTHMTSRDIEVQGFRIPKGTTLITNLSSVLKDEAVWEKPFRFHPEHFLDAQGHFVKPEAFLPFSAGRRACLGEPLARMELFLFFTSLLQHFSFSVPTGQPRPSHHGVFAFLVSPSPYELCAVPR
Method: as §1

CYP2B6 = target: T6, CYP2B6 (Homo sapiens, UniProt P20813); experiment: CYP2B6 inhibition in Saccharosomes; format: biochemical; details: Saccharosomes containing CYP2B6
T6 construct: host or cells: yeast microsomes (Saccharosomes)
T6 sequence (P20813 1-491): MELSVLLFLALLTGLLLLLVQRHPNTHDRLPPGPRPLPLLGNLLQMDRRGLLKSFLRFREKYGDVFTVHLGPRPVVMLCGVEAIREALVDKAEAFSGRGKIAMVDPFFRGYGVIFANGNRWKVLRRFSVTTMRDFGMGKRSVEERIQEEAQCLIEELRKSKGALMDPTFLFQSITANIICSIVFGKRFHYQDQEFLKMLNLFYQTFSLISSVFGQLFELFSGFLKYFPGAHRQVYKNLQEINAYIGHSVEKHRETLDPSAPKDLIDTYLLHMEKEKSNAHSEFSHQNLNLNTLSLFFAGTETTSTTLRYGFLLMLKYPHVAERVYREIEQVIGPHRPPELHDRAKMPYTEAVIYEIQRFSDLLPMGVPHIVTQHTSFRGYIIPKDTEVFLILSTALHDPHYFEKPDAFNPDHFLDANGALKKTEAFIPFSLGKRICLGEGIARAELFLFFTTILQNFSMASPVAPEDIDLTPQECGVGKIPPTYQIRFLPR

CYP1B1 = target: T7, CYP1B1 (Homo sapiens, UniProt Q16678); experiment: CYP1B1 inhibition in live human cells (HEK293); format: cell-based
T7 sequence (Q16678 1-543): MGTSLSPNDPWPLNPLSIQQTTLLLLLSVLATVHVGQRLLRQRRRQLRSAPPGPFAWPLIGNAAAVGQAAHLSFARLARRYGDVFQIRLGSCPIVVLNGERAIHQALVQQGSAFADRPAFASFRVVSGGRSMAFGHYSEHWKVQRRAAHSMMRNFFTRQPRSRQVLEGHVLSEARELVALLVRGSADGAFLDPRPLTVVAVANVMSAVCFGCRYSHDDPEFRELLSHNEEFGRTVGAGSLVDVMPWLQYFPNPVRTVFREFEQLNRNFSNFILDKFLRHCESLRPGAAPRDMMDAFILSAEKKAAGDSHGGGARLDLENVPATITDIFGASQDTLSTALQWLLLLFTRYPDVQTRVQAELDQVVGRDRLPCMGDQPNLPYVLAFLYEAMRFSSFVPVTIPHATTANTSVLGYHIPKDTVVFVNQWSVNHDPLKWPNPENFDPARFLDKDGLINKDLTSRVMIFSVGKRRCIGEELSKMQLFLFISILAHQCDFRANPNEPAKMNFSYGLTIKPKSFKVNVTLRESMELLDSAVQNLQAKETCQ

CYP2A6 = target: T8, CYP2A6 (Homo sapiens, UniProt P11509); experiment: CYP2A6 inhibition in Saccharosomes; format: biochemical
T8 construct: host or cells: yeast microsomes (Saccharosomes)
T8 sequence (P11509 1-494): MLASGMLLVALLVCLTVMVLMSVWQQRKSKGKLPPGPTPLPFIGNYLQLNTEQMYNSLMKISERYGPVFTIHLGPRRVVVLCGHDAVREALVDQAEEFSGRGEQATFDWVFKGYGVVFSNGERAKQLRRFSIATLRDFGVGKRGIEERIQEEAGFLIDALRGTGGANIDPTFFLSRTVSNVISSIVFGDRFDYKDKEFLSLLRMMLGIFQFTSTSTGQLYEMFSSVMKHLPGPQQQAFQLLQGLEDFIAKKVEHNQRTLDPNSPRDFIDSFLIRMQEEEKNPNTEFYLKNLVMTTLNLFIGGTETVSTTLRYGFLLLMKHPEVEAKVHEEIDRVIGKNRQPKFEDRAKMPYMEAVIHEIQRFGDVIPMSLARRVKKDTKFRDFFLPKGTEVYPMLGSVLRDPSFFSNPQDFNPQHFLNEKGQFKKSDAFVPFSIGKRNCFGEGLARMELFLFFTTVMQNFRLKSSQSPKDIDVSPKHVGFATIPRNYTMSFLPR
Method: as §1

Molecule COc1c(C(=O)/C=C/c2cccnc2)c(O)c(OC)c2occc12 [Compound 8, 3-(4,7-dimethoxy-6-hydroxybenzofuran-5-yl)-1-(pyridin-3-yl)-3-oxopropene] has an IC50 (CYP1A2) of 166 nM, an inhibition at 20 µM (CYP2C18) of 63% and an inhibition at 20 µM (CYP2C19) of 7%. For the same molecule, the IC50 (CYP3A4) was 3000 nM, the IC50 (CYP2D6) was 7000 nM and the inhibition at 20 µM (CYP2D6; human, Saccharosomes containing CYP2D6, 20 μM) was 84%. For the same molecule, the inhibition at 20 µM (CYP2B6) was 15%, the IC50 (CYP1B1) was 265 nM and the “Inhibition of CYP2A6 at 20 μM” value (CYP2A6) was “No Inhibition”.
